Experimental data from publication PMC13242511, “Disrupting Notch signalling by a small molecule inhibiting dihydroorotate dehydrogenase activity” (Scientific Reports, 2026).
“And” between values parts separate entries of the source, which are not always exact repeats. Equal values may be shown once. “Also recorded” adds a separate entry of the source. Read-outs that look alike come from different tables or passages of the source.

Legend:
Notch signalling = assay: Notch reporter assay (12xCSL firefly luciferase / renilla luciferase, HEK293T Notch1ΔE reporter cell line clone #A1-11); type: cell-based; parameters: AUC Notch: scale not given here; details: for AUC 9p Notch reporter assay / AUC 14p Notch reporter assay: AUCs averaged when replicates available; for AUC Notch: area under the 14-point dose-response curve; for Notch assay: overview in comparison to compound C, Supplemental Fig. 9
Outline: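 Compounds at two-fold concentration in 10 µl medium were brought to one-fold by adding 10 µl holding 4000 Notch reporter cells (clone #A1-11) per well of a 384-well plate. After 24 h, Promega dual-GLO firefly and renilla luciferase were read on a SpectraMaxi3. Dose-response curves were fitted with a log(inhibitor) vs. response variable-slope model.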

γ-secretase complex = γ-secretase complex (Homo sapiens, UniProt P49768); assay: APP-C99 counter assay (GSI reporter assay); type: cell-based; parameters: AUC APP: scale not given here; details: for AUC 9p APP-counter assay / AUC. 14p APP-counter assay: AUCs averaged when replicates available; for AUC APP: area under the 14-point dose-response curve, replicates averaged; for APP assay: overview in comparison to compound C, Supplemental Fig. 9
Outline: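 γ-secretase activity reported via APP cleavage driving firefly luciferase, normalized to renilla. After 24 h transfection then 24 h compound exposure, signals were read (0.1 s integration). Triplicate dose–responses fitted by variable-slope four-parameter model for IC50; area under curve also derived.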

[1] = 14p dose response, single replicates, read-out: approximated IC50s 14p Notch reporter assay
[2] = Homo sapiens, HEK-293T, 9p dose response, averaged over replicates, read-out: 9p Notch reporter assay averaged IC50s
[3] = Homo sapiens, HEK-293T, 9p dose response, log10 of averaged IC50, read-out: 9p Notch reporter assay averaged IC50s (log) (converted)
[4] = Homo sapiens, HEK-293T, 14-point, unit inferred, replicates averaged, read-out: approxiated IC50s 14p Notch reporter assay
[5] = Homo sapiens, HEK-293T, 14p Notch assay DR, log10 value, Notch inhibitor controls, no bottom constraint named, read-out: approximated LogIC50 (converted)
[6] = Homo sapiens, HEK-293T, 14p dose response, single replicates, read-out: approximated IC50s 14p Notch reporter assay
[7] = Homo sapiens, HEK-293T, 14p dose response, log10 of averaged IC50, read-out: 14p Notch reporter assay averaged IC50s (log) (converted)
[8] = 14p APP assay DR, Notch inhibitor controls, no bottom constraint named
[9] = 9p dose response, single replicates, read-out: approximated IC50s 9p Notch reporter assay
[10] = 9p dose response, log10 of averaged IC50

| Structure (SMILES) | AUC 9p Notch reporter assay (Notch signalling; 9p dose response) | IC50 (Notch signalling; [1]) | AUC 14p Notch reporter assay (Notch signalling; 14p dose response) | IC50 (Notch signalling; [2]) [µM] | IC50 (Notch signalling; [3]) [µM] | IC50 (Notch signalling; [4]) [µM] | IC50 (Notch signalling; [5]) [µM] | IC50 (Notch signalling; [6]) [µM] | IC50 (Notch signalling; [7]) [µM] | AUC Notch (Notch signalling; replicates averaged) | Notch assay (Notch signalling) | Hill-Slope 9p APP counter assay averaged (γ-secretase complex; 9p dose response) | AUC 9p APP-counter assay (γ-secretase complex; 9p dose response) | curve fit information (γ-secretase complex; [8]) | AUC. 14p APP-counter assay (γ-secretase complex; 14p dose response) | AUC APP (γ-secretase complex) | APP assay (γ-secretase complex) | IC50 (Notch signalling; [9]) | other results |
| --- | --- | --- | --- | --- | --- | --- | --- | --- | --- | --- | --- | --- | --- | --- | --- | --- | --- | --- | --- |
| CC(C)(C)c1ccc(Oc2ccc(N)cn2)cc1 [CB-103, reference compound] | 3.40E+02 | 5.8 µM | 5.46E+02 | 15 | 15.8 | 5.5 | 6.31 | 5.1 | 5.01 | 546.0 | lower potency; also recorded: lower activity than compound C | -2.0 | 3.16E+02 | IC50 indeterminate | 5.48E+02 | 548.4 | weak potency |  |  |
| C[C@H](NC(=O)Cc1cc(F)cc(F)c1)C(=O)N[C@H](C(=O)OC(C)(C)C)c1ccccc1 [DAPT, reference compound] | 3.01E+02 | 0.51 µM and 0.37 µM | 4.95E+02 |  |  |  |  |  |  | 495.0 | comparable | -2.8 | 3.64E+02 | IC50 indeterminate | 5.80E+02 | 580.4 | higher potency | 0.29 µM and 0.26 µM | reporter signal in % of DMSO (Notch signalling; 10 µM, inhibitor controls, Supplemental Fig. 2A): 49%; IC50 (Notch signalling; 9p dose response, averaged over replicates, read-out: 9p Notch reporter assay averaged IC50s): 0.28 µM; 9p Notch reporter assay averaged IC50s (log) (Notch signalling; [10]): -6.6; IC50 (Notch signalling; 14-point, unit inferred, replicates averaged, read-out: approxiated IC50s 14p Notch reporter assay): 0.44 µM; Bottom (Emax) (Notch signalling; 14p Notch assay DR, Emax indicated independent from assay constraints, in % (unit assumed)): 42.8 and 41.0; approximated LogIC50 [M] (Notch signalling; 14p Notch assay DR, log10 value, Notch inhibitor controls, no bottom constraint named): -6.3 M; 14p Notch reporter assay averaged IC50s (log) (Notch signalling; 14p dose response, log10 of averaged IC50): -6.4; renilla signal (Notch signalling; 384-well format): not affected; IC50 (γ-secretase complex; 9p dose response, averaged, read-out: 9p APP counter assay averaged IC50s): 2.5 µM; 9p APP counter assay averaged IC50s (log) (γ-secretase complex; [10]): -5.6; IC50 (γ-secretase complex; 9p dose response, read-out: approximated IC50s 9p APP counter assay): 2.5 µM; IC50 (γ-secretase complex; 14-point, unit inferred, some fits outside of tested concentration range, read-out: approximated IC50s 14p APP-counter assay): 0.4 µM; IC50 (γ-secretase complex; 14p APP assay DR, Notch inhibitor controls, no bottom constraint named, read-out: approximated IC50): 5.2 µM; IC50 (γ-secretase complex; 14p dose response, single replicates, read-out: approximated IC50s 14p APP counter assay averaged): 5.2 µM; IC50 (γ-secretase complex; 14p dose response, averaged over replicates, read-out: 14p APP counter assay averaged IC50s): 5.2 µM |
| CC(C)(C(=O)NCC(F)(F)C(F)(F)F)C(=O)N[C@@H]1C(=O)Nc2ccccc2-c2ccccc21 [RO4929097, reference compound] | 2.36E+02 | 0.045 µM | 4.30E+02 | 0.022 | 0.02 | 0.053 | 0.0631 | 0.06 | 0.0501 | 430.0 | higher potency | -1.5 | 2.88E+02 |  | 5.27E+02 | 527.4 | higher potency | 0.031 µM and 0.013 µM | IC50 (Notch signalling; Homo sapiens, HEK-293T, 14p Notch assay DR, Notch inhibitor controls, no bottom constraint named, read-out: approximated IC50): 0.0217 µM; IC50 (Notch signalling; Homo sapiens, HEK-293T, 14p Notch assay DR, averaged when replicate measurements were available, read-out: averaged IC50s): 0.042 µM |
| CCc1c(C(=O)N(C)Cc2cnn(C(C)C)c2)[nH]c2ccccc12 [compound A] |  |  |  |  |  | 3.4 |  |  |  | 535.0 |  |  |  |  |  | 658.8 |  |  | IC50 (Notch signalling; Homo sapiens, HEK-293T, 14-point dose-response, Fig. 4, read-out: approximated IC50, Notch reporter assay): 3.3 µM; IC50 (Notch signalling; Homo sapiens, HEK-293T, 14-point dose-response, read-out: approximated IC50, Notch reporter assay): 4 µM; IC50 (Notch signalling; Homo sapiens, HEK-293T, 14p Notch assay DR, bottom constrained to Emax of positive control DAPT, read-out: approximated IC50): 4.2 µM; IC50 (Notch signalling; Homo sapiens, HEK-293T, 14p Notch assay DR, bottom constrained to Emax of positive control RO4929097, read-out: approximated IC50): 2.5 µM; IC50 (Notch signalling; Homo sapiens, HEK-293T, 14p Notch assay DR, log10 value, bottom constrained to Emax of positive control DAPT, read-out: approximated LogIC50 (converted)): 3.98 µM; IC50 (Notch signalling; Homo sapiens, HEK-293T, 14p Notch assay DR, log10 value, bottom constrained to Emax of positive control RO4929097, read-out: approximated LogIC50 (converted)): 2.51 µM; activity at 10 µM (Notch signalling; Homo sapiens, HEK-293T, 10 µM, primary screen, 24 h, unit from Fig. 2 legend, read-out: Primary screen at 10 µM (Notch reporter signal)): 25.3%; activity at 10 µM (Notch signalling; Homo sapiens, HEK-293T, 10 µM, three-dose confirmation screen, unit from Fig. 2 legend, read-out: Hit confirmation at 10 µM (Notch reporter signal)): 27.7%; activity at 10 µM (Notch signalling; Homo sapiens, HEK-293T, 10µM, 3-point DR confirmation screen, Notch reporter assay, read-out: inhibitor ratio in % of DMSO in 3 point DR): 27.7%; activity at 10 µM (Notch signalling; Homo sapiens, HEK-293T, 10 µM, sheet conf vs counter 10 µM, same values as 3-point DR confirmation screen, read-out: Confirmation screen): 27.7%; activity at 25 µM (Notch signalling; Homo sapiens, HEK-293T, 25µM, 3-point DR confirmation screen, Notch reporter assay, read-out: inhibitor ratio in % of DMSO in 3 point DR): 19%; activity at 25 µM (Notch signalling; Homo sapiens, HEK-293T, 25 µM, Notch reporter 3-point dose-confirmation assay, sheet "conf vs counter 25 µM", read-out: Confirmation screen): 19%; activity (Notch signalling; Homo sapiens, HEK-293T, 1,25µM, 3-point DR confirmation screen, Notch reporter assay, read-out: inhibitor ratio in % of DMSO in 3 point DR): 65.8%; effect in the APP assay (γ-secretase complex; 14-point dose-response, Supplemental Fig. 4J): showed an inhibitory effect at high concentrations; Hill-slope (γ-secretase complex; 14p APP assay DR, bottom constrained to Emax of positive control CB-103): -1.6; Hill-slope (γ-secretase complex; 14p APP assay DR, bottom constrained to Emax of positive control LY-411575): -1.6; remaining activity at 10 µM (γ-secretase complex; 24 h, 10µM, APP-C99 counter assay, read-out: 3p-DR in % of DMSO counter): 71.4%; activity at 10 µM (γ-secretase complex; 24 h, 10 µM, sheet conf vs counter 10 µM, read-out: Counter screen (Hek APP-C99)): 71.3%; remaining activity at 25 µM (γ-secretase complex; 24 h, 25µM, APP-C99 counter assay, read-out: 3p-DR in % of DMSO counter): 62.2%; remaining activity at […] (γ-secretase complex; 24 h, 1,25µM, APP-C99 counter assay, read-out: 3p-DR in % of DMSO counter): 75.7% |
